Patent US20240025893A1, “PYRIMIDINE-AND NITROGEN-CONTAINING BICYCLIC COMPOUND” (Asahi Kasei Pharma Corporation, priority 2020, published 2024)

Legend:
human IRAK-4 = human IRAK-4 (Homo sapiens (Human), UniProt Q9NWZ3); test: Measurement of human IRAK-4 inhibitory activity (TR-FRET, peptide substrate phosphorylation, 10 μM ATP); type: biochemical; conditions: 1 nM IRAK-4, 10 μM ATP, 23° C., 30 minutes; average values
How it was run: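 With 1 nM IRAK-4, 0.5 μM biotinylated peptide and 10 μM ATP, compound incubated 30 min at 23 °C in 50 mM HEPES pH 7.2 with Mg2+/Mn2+. Stopped with EDTA plus europium-cryptate anti-phosphopeptide antibody and streptavidin-XL665, 60 min at 23 °C. Activity taken as the 665/620 nm TR-FRET ratio.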

[1] = system: LPS-stimulated TNFα production in THP-1 cells; test: LPS-stimulated TNFα production inhibition test using human acute monocytic leukemia cell strain THP-1; type: cell-based; conditions: Homo sapiens, THP-1, 4 h, LPS 2.5 ng/mL, average values
How it was run: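 THP-1 cells were preincubated with compound for 1 h at 37 °C, then stimulated with LPS (2.5 ng/mL final) for 4 h. Supernatant TNFα was quantified by HTRF (620/665 nm ratio) against a calibration curve. IC50 came from a 4-parameter logistic fit, with no-LPS set as 100% and no-compound as 0% suppression.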

Chain of human IRAK-4 (Q9NWZ3 whole entry): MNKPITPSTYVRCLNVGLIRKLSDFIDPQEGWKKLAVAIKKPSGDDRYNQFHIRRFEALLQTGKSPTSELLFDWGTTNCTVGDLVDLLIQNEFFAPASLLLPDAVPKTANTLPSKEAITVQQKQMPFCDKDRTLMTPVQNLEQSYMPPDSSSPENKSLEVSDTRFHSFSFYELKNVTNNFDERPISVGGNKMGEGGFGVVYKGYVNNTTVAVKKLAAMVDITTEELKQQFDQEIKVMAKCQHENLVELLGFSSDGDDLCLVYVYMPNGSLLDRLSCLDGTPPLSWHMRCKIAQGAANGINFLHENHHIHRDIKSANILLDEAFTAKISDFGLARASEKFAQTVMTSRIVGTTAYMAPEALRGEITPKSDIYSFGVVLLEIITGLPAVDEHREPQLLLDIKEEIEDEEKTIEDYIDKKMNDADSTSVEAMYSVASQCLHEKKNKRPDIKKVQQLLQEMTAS

With Cc1nc(C(=O)N2CCN([C@H]3C[C@@H](C(=O)Nc4nc5ccc(-c6cnc(CO[C@H]7CCC[C@@H]7O)nc6)cc5s4)C3)[C@@H](C)C2)co1 [b-04-36] the IC50 (human IRAK-4) was 0.9 nM and the IC50 [1] was 48 nM.

Work on C[C@H]1CN(C(=O)c2ccc(Cl)cn2)CCN1[C@H]1C[C@@H](C(=O)Nc2nc3ccc(-c4cnc(CO[C@H]5CCC[C@@H]5O)nc4)cc3s2)C1 [b-04-37] yielded an IC50 (human IRAK-4) of 0.81 nM and an IC50 [1] of 35 nM.

C[C@H]1CN(C(=O)c2cncnc2)CCN1[C@H]1C[C@@H](C(=O)Nc2nc3ccc(-c4cnc(CO[C@H]5CCC[C@@H]5O)nc4)cc3s2)C1 [b-04-38] gave an IC50 (human IRAK-4) of 0.85 nM and an IC50 [1] of 87 nM.

For C[C@H]1CN(C(=O)c2ccon2)CCN1[C@H]1C[C@@H](C(=O)Nc2nc3ccc(-c4cnc(CO[C@H]5CCC[C@@H]5O)nc4)cc3s2)C1 [b-04-39], the IC50 (human IRAK-4) was 0.66 nM and the IC50 [1] was 44 nM.

Cc1cc(C(=O)N2CCN([C@H]3C[C@@H](C(=O)Nc4nc5ccc(-c6cnc(CO[C@H]7CCC[C@@H]7O)nc6)cc5s4)C3)[C@@H](C)C2)cc(C)n1 [b-04-40] showed an IC50 (human IRAK-4) of 0.89 nM and an IC50 [1] of 25 nM.

In the case of CCCOCc1ncc(-c2ccc3nc(NC(=O)[C@H]4C[C@@H](N5CCN(C(=O)c6cc(F)ccn6)C[C@@H]5C)C4)sc3c2)cn1 [b-04-41], the IC50 (human IRAK-4) is reported as 0.69 nM and the IC50 [1] is reported as 76 nM.

With CCCOCc1ncc(-c2ccc3nc(NC(=O)[C@H]4C[C@@H](N5CCN(C(=O)c6cc(C)ccn6)C[C@@H]5C)C4)sc3c2)cn1 [b-04-42] the IC50 (human IRAK-4) was 0.49 nM and the IC50 [1] was 64 nM.

CCCOCc1ncc(-c2ccc3nc(NC(=O)[C@H]4C[C@@H](N5CCN(C(=O)c6ccncc6Cl)C[C@@H]5C)C4)sc3c2)cn1 [b-04-43] gave an IC50 (human IRAK-4) of 0.65 nM and an IC50 [1] of 96 nM.

Compound Cc1ccc(C(=O)N2CCN([C@H]3C[C@@H](C(=O)Nc4nc5ccc(-c6cnc(CO[C@H]7CCC[C@@H]7O)nc6)cc5s4)C3)[C@@H](C)C2)cn1 [b-04-44] has an IC50 (human IRAK-4) of 0.46 nM and an IC50 [1] of 23 nM.

For COc1ccc(C(=O)N2CCN([C@H]3C[C@@H](C(=O)Nc4nc5ccc(-c6cnc(CO[C@H]7CCC[C@@H]7O)nc6)cc5s4)C3)[C@@H](C)C2)cn1 [b-04-45], the IC50 (human IRAK-4) was 0.66 nM and the IC50 [1] was 15 nM.

C[C@H]1CN(C(=O)c2cc(F)ccn2)CCN1[C@H]1C[C@@H](C(=O)Nc2nc3ccc(-c4cnc(CO[C@H]5CCC[C@@H]5O)nc4)cc3s2)C1 [b-04-46] gave an IC50 (human IRAK-4) of 0.58 nM and an IC50 [1] of 22 nM.

Cc1ccnc(C(=O)N2CCN([C@H]3C[C@@H](C(=O)Nc4nc5ccc(-c6cnc(CO[C@H]7CCC[C@@H]7O)nc6)cc5s4)C3)[C@@H](C)C2)c1 [b-04-47] was tested, and the IC50 (human IRAK-4) was 0.54 nM and the IC50 [1] was 26 nM.

Compound C[C@H]1CN(C(=O)c2ccncc2Cl)CCN1[C@H]1C[C@@H](C(=O)Nc2nc3ccc(-c4cnc(CO[C@H]5CCC[C@@H]5O)nc4)cc3s2)C1 [b-04-48] has an IC50 (human IRAK-4) of 0.52 nM and an IC50 [1] of 35 nM.

With CC(=O)N1CCN([C@H]2C[C@@H](C(=O)Nc3nc4ccc(-c5cnc(CO[C@H]6CCC[C@@H]6O)nc5)cc4s3)C2)[C@@H](C)C1 [b-05-01, (1R,3s)-3-((S)-4-Acetyl-2-methylpiperazin-1-yl)-N-(6-(2-((((1S,2S)-2-hydroxycyclopentyl)oxy)methyl)pyrimidin-5-yl)benzo[d]thiazol-2-yl)cyclobutane-1-carboxamide] the IC50 (human IRAK-4) was 1.9 nM and the IC50 [1] was 48 nM.

Work on C[C@H]1CN(C(=O)C2CC2)CCN1[C@H]1C[C@@H](C(=O)Nc2nc3ccc(-c4cnc(CO[C@H]5CCC[C@@H]5O)nc4)cc3s2)C1 [b-05-02] yielded an IC50 (human IRAK-4) of 2.47 nM and an IC50 [1] of 56 nM.

Compound COCC(=O)N1CCN([C@H]2C[C@@H](C(=O)Nc3nc4ccc(-c5cnc(CO[C@H]6CCC[C@@H]6O)nc5)cc4s3)C2)[C@@H](C)C1 [b-05-03] has an IC50 (human IRAK-4) of 1.81 nM and an IC50 [1] of 50 nM.

C[C@H]1CN(C(=O)c2ccccc2)CCN1[C@H]1C[C@@H](C(=O)Nc2nc3ccc(-c4cnc(CO[C@H]5CCC[C@@H]5O)nc4)cc3s2)C1 [b-05-04] was tested, and the IC50 (human IRAK-4) was 4.38 nM and the IC50 [1] was 24 nM.

CCC(=O)N1CCN([C@H]2C[C@@H](C(=O)Nc3nc4ccc(-c5cnc(CO[C@H]6CCC[C@@H]6O)nc5)cc4s3)C2)[C@@H](C)C1 [b-05-05] gave an IC50 (human IRAK-4) of 1.95 nM and an IC50 [1] of 50 nM.

With CC(C)C(=O)N1CCN([C@H]2C[C@@H](C(=O)Nc3nc4ccc(-c5cnc(CO[C@H]6CCC[C@@H]6O)nc5)cc4s3)C2)[C@@H](C)C1 [b-05-06] the IC50 (human IRAK-4) was 2.25 nM and the IC50 [1] was 46 nM.

C[C@H]1CN(C(=O)C2CCC2)CCN1[C@H]1C[C@@H](C(=O)Nc2nc3ccc(-c4cnc(CO[C@H]5CCC[C@@H]5O)nc4)cc3s2)C1 [b-05-07] was tested, and the IC50 (human IRAK-4) was 2.51 nM and the IC50 [1] was 44 nM.

With C[C@H]1CN(C(=O)N2CCC2)CCN1[C@H]1C[C@@H](C(=O)Nc2nc3ccc(-c4cnc(CO[C@H]5CCC[C@@H]5O)nc4)cc3s2)C1 [b-05-09] the IC50 (human IRAK-4) was 2.13 nM and the IC50 [1] was 44 nM.

C[C@H]1CN(C(=O)Nc2ccccc2)CCN1[C@H]1C[C@@H](C(=O)Nc2nc3ccc(-c4cnc(CO[C@H]5CCC[C@@H]5O)nc4)cc3s2)C1 [b-06-02] was tested, and the IC50 (human IRAK-4) was 4.19 nM and the IC50 [1] was 46 nM.

Compound C[C@H]1CN(CC(F)(F)F)CCN1C1CC(C(=O)Nc2nc3ccc(-c4cnc(CO[C@H]5CCC[C@@H]5O)nc4)cc3s2)C1 (stereo partly drawn) [b-07-01, N-(6-(2-((((1S,2S)-2-Hydroxycyclopentyl)oxy)methyl)pyrimidin-5-yl)benzo[d]thiazol-2-yl)-3-((S)-2-methyl-4-(2,2,2-trifluoroethyl)piperazin-1-yl)cyclobutane-1-carboxamide] has an IC50 (human IRAK-4) of 2.34 nM and an IC50 [1] of 58 nM.

For C[C@H]1CN(C2CC2)CCN1C1CC(C(=O)Nc2nc3ccc(-c4cnc(CO[C@H]5CCC[C@@H]5O)nc4)cc3s2)C1 (stereo partly drawn) [b-08-01, 3-((S)-4-Cyclopropyl-2-methylpiperazin-1-yl)-N-(6-(2-((((1S,2S)-2-hydroxycyclopentyl)oxy)methyl)pyrimidin-5-yl)benzo[d]thiazol-2-yl)cyclobutane-1-carboxamide], the IC50 (human IRAK-4) was 1.97 nM and the IC50 [1] was 56 nM.

Compound COc1c(-c2cnc(CO[C@H]3CCC[C@@H]3O)nc2)ccc2nc(NC(=O)[C@@H]3C[C@H]3C)sc12 [c-02-01] has an IC50 (human IRAK-4) of 3.7 nM and an IC50 [1] of 110 nM.

Compound COc1c(-c2cnc(CO[C@H]3CCC[C@@H]3O)nc2)ccc2nc(NC(=O)[C@H]3C[C@H]3F)sc12 [c-02-04] has an IC50 (human IRAK-4) of 3.35 nM and an IC50 [1] of 261 nM.

Work on COc1c(-c2cnc(CO[C@H]3CCC[C@@H]3O)nc2)ccc2nc(NC(=O)[C@H]3C[C@@](C)(O)C3)sc12 [c-02-05] yielded an IC50 (human IRAK-4) of 4.64 nM and an IC50 [1] of 175 nM.

Compound COc1c(-c2cnc(CO[C@H]3CCC[C@@H]3O)nc2)ccc2nc(NC(=O)C3CC34CC4)sc12 (some centres unmarked) [c-02-06] has an IC50 (human IRAK-4) of 2.13 nM and an IC50 [1] of 194 nM.

COc1c(-c2cnc(CO[C@H]3CCC[C@@H]3O)nc2)ccc2nc(NC(=O)C3CC(OC(C)(C)C)C3)sc12 (some centres unmarked) [c-02-07] was tested, and the IC50 (human IRAK-4) was 1.56 nM and the IC50 [1] was 76 nM.

With COc1c(-c2cnc(CO[C@H]3CCC[C@@H]3O)nc2)ccc2nc(NC(=O)[C@@H]3C[C@@H]3F)sc12 [c-02-08] the IC50 (human IRAK-4) was 2.44 nM and the IC50 [1] was 196 nM.

With COc1c(-c2cnc(CO[C@H]3CCC[C@@H]3O)nc2)ccc2nc(NC(=O)[C@H]3C[C@@H](N4CCN(C(=O)OC(C)(C)C)C[C@@H]4C)C3)sc12 [c-03-01, tert-Butyl (S)-4-((1s,3R)-3-((6-(2-((((1S,2S)-2-hydroxycyclopentyl)oxy)methyl)pyrimidin-5-yl)-7-methoxybenzo[d]thiazol-2-yl)carbamoyl)cyclobutyl)-3-methylpiperazine-1-carboxylate] the IC50 (human IRAK-4) was 16.6 nM and the IC50 [1] was 49 nM.
